Assay results: patent US7855228B2, “Antibiotics targeting MreB” (The Board of Trustees of the Leland Stamford Junior …, priority 2005, dated 2010)

Key:
Caulobacter [1] = assay: Colony formation assay; assay type: cell-based, Caulobacter crescentus
Text: To assess the impact of A22 on cell division and survival, we examined the effect of A22 on colony formation.

Caulobacter crescentus = assay: Caulobacter growth (optical density, doubling time); assay type: cell-based; conditions: for Doubling in A22 in WT Genetic Background / Doubling Time in A22 / Doubling in A22 when Replaced by WT mreB: cell mass over 6 hr, A660
Method: Similar volumes of solvent (methanol) alone had no effect on growth. […] This rapid effect on cell growth could be due to a disruption in cell wall deposition or could reflect a secondary response to some other cellular perturbation.
MreB Is the Direct Target of A22. To identify the cellular target(s) of A22, we carried out a screen for A22-resistant mutants by growing large numbers of Caulobacter on plates containing 10 μg/ml A22. We independently isolated 20 mutants that stably and repeatedly formed colonies on plates containing 10 μg/ml A22 and grew in liquid culture containing 10 μg/ml A22. Since MreB was proposed as a possible target of A22, we PCR-amplified and sequenced the mreB gene in the 20 A22-resistant strains and a control wild-type strain. Each of the 20 A22-resistant strains contained a single missense point mutation in its mreB gene, whereas the wild-type A22-sensitive strain had no mreB point mutations (Table 2). Though isolated independently, the 20 strains had only 7 different point mutations: one specific point mutation was found in 10 of the strains, another specific point mutation was found in 5 of the strains, and 5 additional point mutations were found in 1 strain each. Since all 7 of these mutations affected amino acids that are conserved between Caulobacter MreB and Thermotoga maritima MreB, they could be mapped onto the solved three-dimensional structure of T. maritima MreB. […] All of the resistant strains grow at a similar rate in rich PYE medium (w115 min/doubling), which is slower than wild-type cells without drug (87 min/doubling), but they are largely unaffected by the presence of A22 (w115 min/doubling) (Table 2).
Bacterial Strains and Growth Conditions. Caulobacter crescentus strains CB15N and derivatives were grown in PYE or M2G medium or agar plates supplemented with the appropriate combinations of antibiotics, glucose, xylose, A22, and the A22 diluent, methanol. The FROS strains labeled at both the origin and CC2943, CC3300, CC3656, and CC0091, or singly labeled at CC0786, and CC3192 were generated and characterized in a previous study, where they were referred to as MPO40, MPO53, MPO7, MPO133, MP156, and MP82, respectively. Growth and analysis conditions for the mreB depletion, holB:gfp, and FROS strains have been previously described. The methods for ΦCr30-mediated generalized phage transduction and swarmer cell isolation by Percoll density gradient centrifugation have also been described. Washes were performed by micro centrifugation at 8000 g. Twenty independent A22-resistant Caulobacter mutants were isolated by growing 20 single CB15N colonies overnight and plating 10^9 cells per culture on PYE plates containing 10 μg/ml A22. One A22-resistant colony from each plate was isolated, retested, and characterized. To sequence the mreB gene from these strains, mreB was PCR-amplified and the resulting band was gel-purified (Qiagen) and sequenced. Overlay PCR mutagenesis was used to introduce the […] point mutation (A509G) into the previously described PxyI:gfp:mreB construct.

E. coli MG1655 = assay: Microscopic observation of cell shape; assay type: cell-based; conditions: for Effect on E. coli cell morphology (in words): 3×MIC or 300 μg/ml, 16 hrs
Method in brief: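 E. coli K-12 MG1655 grown in Lennox broth with 0.1% glucose (pH 7.2), exposed to compound, methanol-fixed 5 min and examined by differential interference contrast microscopy. Anucleate cells scored after DAPI staining (5 μg/ml) using combined fluorescence phase-contrast.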

Caulobacter [2] = assay: Caulobacter morphology (DIC images); assay type: cell-based, Caulobacter crescentus
Text: Consistent with previous observations in E. coli (Iwai et al., 2002), A22 caused a dose-dependent alteration of Caulobacter morphology, transforming normal, crescent-shaped cells into rounded, lemon-shaped cells. The progression of cell shape deformation by A22 treatment was qualitatively similar to that caused by mreB depletion, though the A22 effect was more rapid (FIGS. […]). […] For example, A22 could disrupt the localization of new cell wall synthesis but have no effect on the existing cell wall, such that without additional growth and wall synthesis A22's effects cannot be perceived. A dependence on cell growth could also explain why A22's effect on morphology takes several hours to manifest.
Microscopy and Timelapse Imaging. All experiments other than the A22 flow-cell analysis were performed by mounting the samples on 1% agarose pads as described, with the appropriate concentration of A22 added to the agarose. The rates of origin-distal locus segregation were determined by inducing PxyI:lacI:cfp expression with 0.03% xylose for 75 min, isolating swarmer cells, and growing the swarmer cells in M2G liquid medium for 50 min. After 50 min, 10 μg/ml of A22 was added to these liquid cultures, they were mounted onto 1% M2G agarose pads containing 10 μg/ml A22, and a phase and CFP fluorescence image was captured every 2 min for 60 min. The images were analyzed by previously described software to determine the average position and rate of movement of the observed foci.

SMILES: N=C(N)SCc1ccc(Cl)c(Cl)c1 [Compound 1, S-(3,4-dichlorobenzyl)isothiourea]
- Colony formation (CFU) (Caulobacter [1]; 0.1 μg/ml): un-perturbed
- Colony formation (CFU) (Caulobacter [1]; 1 μg/ml): partially slowed colony formation
- Colony formation (CFU) (Caulobacter [1]; 10 μg/ml and higher): completely halted the increase in CFU
- Effect on growth of Caulobacter cultures (Caulobacter crescentus; 0.1-100 μg/ml, up to 6 hr): slowed growth in a dose-dependent fashion
- Doubling in A22 in WT Genetic Background (Caulobacter crescentus; mreB allele: A325P): 115′
- Doubling in A22 in WT Genetic Background (Caulobacter crescentus; mreB allele: D16G): 112′
- Doubling in A22 in WT Genetic Background (Caulobacter crescentus; mreB allele: D192G): 116′
- Doubling in A22 in WT Genetic Background (Caulobacter crescentus; mreB allele: L23R): 120′
- Doubling in A22 in WT Genetic Background (Caulobacter crescentus; mreB allele: None (wt)): 156′
- Doubling in A22 in WT Genetic Background (Caulobacter crescentus; mreB allele: P112S): 119′
- Doubling in A22 in WT Genetic Background (Caulobacter crescentus; mreB allele: T167A): 105′
- Doubling in A22 in WT Genetic Background (Caulobacter crescentus; mreB allele: V324A): 115′
- Doubling Time in A22 (Caulobacter crescentus; mreB mutation: A325P): 116′
- Doubling Time in A22 (Caulobacter crescentus; mreB mutation: D16G): 115′
- Doubling Time in A22 (Caulobacter crescentus; mreB mutation: D192G): 118′
- Doubling Time in A22 (Caulobacter crescentus; mreB mutation: L23R): 121′
- Doubling Time in A22 (Caulobacter crescentus; mreB mutation: None (wt)): 148′
- Doubling Time in A22 (Caulobacter crescentus; mreB mutation: P112S): 118′
- Doubling Time in A22 (Caulobacter crescentus; mreB mutation: T167A): 110′
- Doubling Time in A22 (Caulobacter crescentus; mreB mutation: V324A): 113′
- Time after A22 treatment at which a decline in growth rate was observed (Caulobacter crescentus; rich PYE medium): 30 min
- Doubling in A22 when Replaced by WT mreB (Caulobacter crescentus; strain: A325P): 144′
- Doubling in A22 when Replaced by WT mreB (Caulobacter crescentus; strain: D16G): 150′
- Doubling in A22 when Replaced by WT mreB (Caulobacter crescentus; strain: None (wt)): 145′
- Doubling in A22 when Replaced by WT mreB (Caulobacter crescentus; strain: P112S): 146′
- Doubling in A22 when Replaced by WT mreB (Caulobacter crescentus; strain: T167A): 148′
- Doubling in A22 when Replaced by WT mreB (Caulobacter crescentus; strain: V324A): 142′
- Effect on E. coli cell morphology (in words) (E. coli MG1655; 30° C.): induced a spherical cell shape
- Effect on E. coli cell morphology (in words) (E. coli MG1655; 30° C., listed as A22): induced spherical cells
- Shape (E. coli MG1655; E. coli MG1655 treated at 3×MIC (*), 30° C., 16 h): Sphere*
- Shape (E. coli MG1655; Example 2, methods as in Example 1): Sphere
- Caulobacter growth and cell shape (Caulobacter [2]; 100 μg/ml): completely blocked growth but did not cause Caulobacter to round up
- Caulobacter growth and cell shape (Caulobacter [2]; 0.1, 1, and 10 μg/ml): both slowed cell growth and altered cell shape
